These results are taken from US20260240844A1, “INHIBITORS OF CHD1L AND USES THEREOF” (The Regents of the University of Colorado, a body corporate, priority 2023, published 2026).

Structures are written as SMILES. Like-named read-outs stand apart in the source and are kept apart here.

Assay [1] concerns SW948 tumor organoids. The experiment in a line: cells. As for the experimental part: ATM is an important protein involved in the initial stages of the DNA damage response. […] ATM mutations are important markers being developed to identify metastatic CRC (mCRC) patients that may be sensitive to DNA damaging chemotherapy.
Synergy was assessed using the Bliss model.

In assay [2] the test system is Colo678 cells. The experiment in a line: Colo678 cell viability, combination with chemotherapy. It is filed as cell-based. Particulars: for IC50: Homo sapiens, COLO-678, Colo678 cells, read-out: IC50 5-FU.
Assay [3] deals with SW620 tumor organoids. The experiment in a line: cells. To be noted: Homo sapiens.
Assay [4] concerns the target T1, full length CHD1L (Homo sapiens, UniProt Q86WJ1).
T1 construct: host or cells: Rosetta 2 (DE3) pLysS cells (E. coli) for CHD1L
Nature of the assay: Nucleosome remodeling FRET assay. To be noted: full length-CHD1L pre-incubated with 10 μM for 10 minutes. It is filed as biochemical. The text has this:
For that, mononucleosomes composed of a human histone octamer containing a Cy5-tagged H2A, wrapped by a Cy3-labelled DNA template (EpiCypher, Cat #16-4201) were used. […] Right after the addition of ATP the assay was monitored overtime using Cy3 excitation (531 nm) and simultaneous detection of Cy3 (595 nm) and Cy5 (685 nm) emission signals using an EnVision plate reader (PerkinElmer). Data are expressed as the ratio of Cy3/Cy5 signal overtime.
Inhibition of nucleosome remodeling by CHD1L inhibitors blocks DDR signaling. CHD1L's main role is chromatin remodeling and DNA relaxation, moving from a tightly condensed DNA to an accessible state allowing for DNA transcription and repair. Thus, the effect of CHD1L ATPase inhibition on its nucleosome remodeling activity using a FRET-based assay was used. The FRET assay measures the distancing of Cy3 on DNA and Cy5 on the H2A histone upon nucleosome sliding.

Assay [5] has as its system SUM149PT cells. Nature of the assay: Phosphatidylserine externalization, membrane integrity and DNA fragmentation. Format: cell-based. As for the experimental part: Phosphatidylserine externalization and membrane integrity—phosphatidylserine externalization and membrane integrity kinetics were analyzed using the RealTime-Glo™ Annexin V Apoptosis and Necrosis Assay (Promega, JA1012) according to the manufacturer's instructions. 8,000 cells were seeded per well in 96 well solid bottom white plates (Corning) in 100 μL and allowed to attach overnight. Then, 75 μL of media were removed, followed by the addition of 25 μL of the test compounds at 4× desired final concentration and 50 μL of the 2× detection reagent. Luminescence and fluorescence were measured overtime using an EnVision plate reader (PerkinElmer). No-cell and medium-only controls were used for background correction.
PARthanatos might be accompanied by other events also occurring during apoptosis or necrosis like mitochondrial depolarization, phosphatidylserine (PS) externalization, loss of membrane integrity and large-scale DNA fragmentation. To better characterize this mechanism, PS externalization and membrane integrity were studied using a real-time multiplex assay that monitors Annexin V binding to PS and simultaneous loss of cell membrane integrity with a membrane impermeable DNA binding dye. […] In contrast, CHD1Li caused a rapid and simultaneous increase of both when combined with SOC drugs, shifting the kinetics to a more non-apoptotic phenotype.

Assay [6] concerns MCF-7 cells. Nature of the assay: Tumor organoid viability, MCF-7. Particulars: Homo sapiens, MCF7; MCF-7 (luminal breast cancer); read-out: IC50, tumor organoid viability, single agent. Format: cell-based. The source says: The tumor organoid viability assay is as described in Example 9.
Assay [7] deals with caspase-3. Nature of the assay: Caspase-3 cleavage activation. Format: cell-based. To be noted: for caspase-3 cleavage activation: single agent. Here is the method:
AIF in the cytoplasm and nucleus was examined. […] Finally, caspase-3 cleavage activation, an apoptosis marker, was measured (FIG. 16D).
CHD1Li-mediated PAR translocation to the cytoplasm activates PARthanatos as a cell death mechanism. Parthanatos is a form a programmed cell death different from apoptosis and known to be mediated by PARP1 overactivation. The unique events occurring during parthanatos are: PARP1 rapid activation, accumulation of PAR and nuclear translocation of apoptosis inducing factor (AIF). Without being bound by any particular theory, accumulation of PAR in the cytoplasm caused by CHD1Li can also mediate parthanatos. To better understand the link between PAR translocation to the cytoplasm and cell death, immunofluorescence to measure the activation of caspase-3 and the subcellular localization of AIF after treatment with SOC drugs and Compound 6 in SUM49PT cells was used. […] Without being bound by any particular theory, this might be caused by the mitochondrial outer membrane permeabilization, which triggers release of mitochondrial proteins like AIF or cytochrome c, activating caspase-3 by its cleavage and leading to apoptosis. […] Moreover, when combining CHD1L inhibition with SOC drugs, the cell death mechanism shifts from apoptosis to parthanatos, evidenced by a significant increase in AIF nuclear translocation and decrease in activation of caspase-3 (FIG. 25D-E).

Assay [8] deals with colon cancer mouse xenograft. The experiment in a line: Colon cancer mouse xenograft model. It is filed as in vivo, mice. As for the experimental part:
The tumor volume was monitored over 30 days, and the tumor volume was measured after 30 days. The tumor was extracted from the mice, and the dimensions of the tumor were measured to provide a tumor volume in mm^3.
Key: PO=oral; IP=intraperitoneal; ANOVA significance: *: P<0.05; **: P<0.0003; ***: P<0.0001.

The subject of assay [9] is SW620 tumor organoids. To be noted: SW620 tumor organoids.
Assay [10] concerns the target PARP2 (Homo sapiens, UniProt Q9UGN5). Nature of the assay: PARP2 trapping (in situ subcellular fractionation, immunofluorescence). Particulars: SUM149PT cells, 0.01% MMS, 4 h. Format: cell-based. Also on record: endogenous in cells; host or cells: SUM149PT.
Protocol: PARP1/2 and CHD1L trapping—PARP1, PARP2 and CHD1L trapping were assessed. SUM149PT cells were plated at a density of 20,000 cells per well into clear bottom black 96-well plates (PerkinElmer). […] After 4 h incubation, cell media was aspirated and cells were treated for 10 min at 4° C. with cold cytoskeleton (CSK) buffer (10 mM PIPES pH=6.8, 300 mM sucrose, 200 mM NaCl, 3 mM MgCl2) supplemented with 0.6% Triton X-100. […] PARP1 (anti-PARP1 antibody, 1:2000, O/N, 4° C.), PARP2 (anti-PARP2, 1:1000, O/N, 4° C.) and CHD1L (anti-CHD1L, 1:1000, O/N, 4° C.) primary antibodies were then added in antibody dilution buffer (2% BSA in PBS) and incubated O/N at 4° C.
To study the accumulation of bound PARP1/2 on chromatin, in situ subcellular fractioning of SUM149PT cells co-treated with 0.01% methyl methanesulfonate (MMS) and the drug of interest was used, followed by immunofluorescence.
In assay [11] the test system is SW620 cells and HCT116 cells. The experiment in a line: CHD1L-mediated TCF-transcription and CSC stemness (clonogenic colonies).
Where [12] appears, read: SW948 tumor organoids, combined with 5FU.
Setting [13] is: SW948 tumor organoids, combined with SN38.

Sequence of PARP2 (Q9UGN5 whole entry): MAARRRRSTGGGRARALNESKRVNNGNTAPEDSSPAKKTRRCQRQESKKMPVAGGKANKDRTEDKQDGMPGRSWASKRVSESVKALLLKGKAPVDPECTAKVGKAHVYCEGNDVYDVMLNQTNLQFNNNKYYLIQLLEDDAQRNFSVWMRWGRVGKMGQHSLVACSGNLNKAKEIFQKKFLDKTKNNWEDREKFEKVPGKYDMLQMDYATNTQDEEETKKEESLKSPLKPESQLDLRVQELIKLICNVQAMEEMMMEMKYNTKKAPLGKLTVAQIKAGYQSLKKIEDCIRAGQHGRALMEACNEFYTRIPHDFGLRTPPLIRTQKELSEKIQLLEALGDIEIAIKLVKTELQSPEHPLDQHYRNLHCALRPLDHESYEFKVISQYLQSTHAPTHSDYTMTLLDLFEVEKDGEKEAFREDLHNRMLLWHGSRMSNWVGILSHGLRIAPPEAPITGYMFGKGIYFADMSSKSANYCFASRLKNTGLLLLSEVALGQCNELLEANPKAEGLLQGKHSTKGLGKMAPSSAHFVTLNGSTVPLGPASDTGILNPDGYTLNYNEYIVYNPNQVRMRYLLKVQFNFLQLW
T1 sequence (Q86WJ1 16-879): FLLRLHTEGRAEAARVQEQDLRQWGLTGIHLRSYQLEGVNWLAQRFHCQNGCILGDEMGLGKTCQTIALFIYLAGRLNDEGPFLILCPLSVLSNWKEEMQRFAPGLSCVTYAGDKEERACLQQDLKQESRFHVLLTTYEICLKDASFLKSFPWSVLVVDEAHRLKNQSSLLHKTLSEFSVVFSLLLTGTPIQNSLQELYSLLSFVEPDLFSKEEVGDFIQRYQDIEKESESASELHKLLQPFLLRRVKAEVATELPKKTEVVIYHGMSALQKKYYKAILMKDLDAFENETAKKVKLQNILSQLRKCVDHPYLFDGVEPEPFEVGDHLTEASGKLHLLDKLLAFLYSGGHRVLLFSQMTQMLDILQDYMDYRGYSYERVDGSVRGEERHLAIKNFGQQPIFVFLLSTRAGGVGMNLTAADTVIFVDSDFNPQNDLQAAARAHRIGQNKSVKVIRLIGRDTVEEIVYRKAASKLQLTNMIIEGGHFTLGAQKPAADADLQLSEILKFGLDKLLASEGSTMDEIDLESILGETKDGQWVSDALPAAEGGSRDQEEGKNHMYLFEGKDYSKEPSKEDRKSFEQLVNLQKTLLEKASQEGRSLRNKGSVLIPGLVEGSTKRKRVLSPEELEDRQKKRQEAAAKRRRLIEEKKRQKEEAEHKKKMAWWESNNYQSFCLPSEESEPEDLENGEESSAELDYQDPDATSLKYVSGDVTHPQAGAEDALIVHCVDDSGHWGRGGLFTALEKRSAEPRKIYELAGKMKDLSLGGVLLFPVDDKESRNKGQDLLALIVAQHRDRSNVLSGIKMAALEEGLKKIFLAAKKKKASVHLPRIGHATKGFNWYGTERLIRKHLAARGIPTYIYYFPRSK

`O=c1[nH]cc(F)c(=O)[nH]1` [Compound 5-FU, 5-fluorouracil]: the IC50 came out at 302 µM in assay [1] (Homo sapiens, SW948, read-out: IC50 of chemotherapy alone); 3430 µM in assay [2] (Compound 6.11 0 μM); 717 µM in [2] (Compound 6.11 3 μM); 99.4 µM in assay [2] (Compound 6.11 3.25 μM); 58.5 µM in assay [2] (Compound 6.11 3.5 μM); 75100 µM in [2] (Compound 12 0 μM). Further, the concentration for half-maximal inhibition (IC50) in assay [2] (Compound 12 1 μM) is 549 µM; in assay [2] (Compound 12 1.5 μM), 392 µM; in assay [2] (Compound 12 2 μM), 205 µM; in [2] (Compound 13 0 μM) it was 7520 µM; in assay [2] (Compound 13 3.5 μM), 544 µM; in assay [2] (Compound 13 3.75 μM), 432 µM. Also, the concentration for half-maximal inhibition (IC50) in assay [2] (Compound 13 4 μM) turned out to be 246 µM; in assay [2] (Compound 14 2.5 μM), 149 µM; in [2] (Compound 14 2.75 μM), 74.7 µM; in assay [2] (Compound 14 3 μM), 50.4 µM; in assay [2] (Compound 20 0 μM), 14800 µM; in assay [2] (Compound 20 3.5 μM), 170 µM. The IC50 was 60 µM in assay [2] (Compound 20 4 μM); 34.5 µM in assay [2] (Compound 20 4.5 μM); greater than 200 µM in assay [3] (SW-620, 72 h, read-out: IC50 5FU, SW620 tumor organoids, 72 h, 5FU alone); 2.88 µM in assay [3] (SW-620, 72 h, read-out: IC50 5FU, SW620 tumor organoids, 72 h, + Compound 6.11 2.75 μM). For the same compound, the “increase in potency of the chemotherapy” value in assay [1] (SW948 tumor organoids, combined with Compound 6) is given as roughly 300 fold.
`Cc1cc(Nc2ccc(NC(=O)Cc3cccs3)cc2)nc(N2CCCC2)n1` [Compound 6, N-(4-((6-methyl-2-(pyrrolidin-1-yl)pyrimidin-4-yl)amino)phenyl)-2-(thiophen-2-yl)acetamide]: the nucleosome remodeling rate result in assay [4] was “reduction of the remodeling rate”. Besides, the “DNA fragmentation (Hoechst 33342)” value in assay [5] is “large-scale fragmentation of DNA”.
As for `Cc1cc(Nc2ccc(NC(=O)Cc3cc(Br)cs3)cc2)nc(N2CCCC2)n1` [Compound 6.11, 2-(4-bromothiophen-2-yl)-N-(4-((6-methyl-2-(pyrrolidin-1-yl)pyrimidin-4-yl)amino)phenyl)acetamide], the IC50 in assay [6] was roughly 1.8 µM. Further, the figures for the Mean Synergy Score in [1] (setting [12]) and in assay [1] (setting [13]) were ~ 72 and ~ 74, respectively. Besides, the maximum synergy score in [1] (setting [12]) was roughly 82; in [1] (setting [13]), roughly 100. The “calculated mean synergy score” value in [2] (Colo678 cells, 72 h, combined with SN-38) is listed as “about 41”. Also, the caspase-3 activation result in [7] (Compound 6.11 combined with SN-38) was “enhanced caspase-3 activation”. Also, the caspase-3 cleavage activation entry in assay [7] is recorded as “did not induce caspase-3 activation”. In assay [8] (Compound 6.11 5 mg/kg daily IP + irinotecan 50 mg/kg 1×/week IP, after 20 days), the “decrease in tumor volume” value was “approximately 50%”. Also, the “metastatic tumor burden (bioluminescent imaging, % change total flux)” value in assay [8] (Compound 6.11 100 mg/kg 5×/week oral + irinotecan 15 mg/kg 1×/week IP) is roughly 0. Further, in assay [8] (combination of Compound 6.11 and irinotecan), the survival entry is “improved survival rates”. The synergy score in assay [9] (Compound 6.11 2.75 μM combined with 5FU) was ~ 30. Moreover, the “increase in PARP2 trapping” value in assay [10] amounted to 2 fold. Also, the “CHD1L-mediated TCF-transcription and CSC stemness” value in assay [11] is given as “dose dependent inhibition”.
Take `COc1cccc2c1C(=O)c1c(O)c3c(c(O)c1C2=O)C[C@@](O)(C(=O)CO)C[C@@H]3O[C@H]1C[C@H](N)[C@H](O)[C@H](C)O1` [doxorubicin]: the caspase-3 cleavage activation result in [7] was “activation of apoptosis by cleavage of caspase-3”. For the same compound, in [5] (real-time Annexin V assay), the “phosphatidylserine externalization / membrane integrity kinetics” value is “apoptotic kinetic phenotype”.
In the case of `O=C(c1cc(Cc2n[nH]c(=O)c3ccccc23)ccc1F)N1CCN(C(=O)C2CC2)CC1` [olaparib], in assay [9] (combined with Compound 6.11), the “enhancement of olaparib potency” value was ~ 355 fold. Further, the IC50 amounted to 0.8 µM in [3] (SW-620, read-out: IC50 olaparib, SW620 tumor organoids, combined with Compound 6.11) and 282 µM in assay [3] (SW-620, read-out: IC50 olaparib, SW620 tumor organoids, olaparib alone). The PARP2 trapping entry in assay [10] is “trapped in a dose-dependent manner both PARP1 and PARP2”.

Broadly, the IC50 is the concentration needed to halve the response being measured.
